This is an account of results in ChEMBL document CHEMBL5120914, “An O-Benzyl Phosphonamidate Prodrug of Tenofovir for the Treatment of Hepatitis B Virus Infection” (J Med Chem, 2022).

The subject of data set [1] is Hepatitis B virus. Description: Antiviral activity against Hepatitis B virus infected in human HepG2.2.15 cells assessed as inhibition of viral DNA replication at 1 uM measured after 6 days by FQ-PCR analysis relative to control. The format is functional, HepG2 2.2.15. Also noted: scale not given: the % may be the effect or the level left. To be noted: time 6 day, 144 h, 1 µM.

Data set [2] in a line: Cytotoxicity against human HepG2 cells assessed as reduction in cell growth incubated for 3 days by MTT assay. To be noted: time 3 day. The format is toxicity, cell-based.
The test system of data set [3] is Hepatitis B virus. Description: Antiviral activity against Hepatitis B virus infected in human HepG2.2.15 cells assessed as inhibition of viral DNA replication measured for 9 days by FQ-PCR analysis. To be noted: HepG2 2.2.15, 216 h. The data set is classed as functional, organism-based.
Data set [4] is described as follows: Acute toxicity in overnight fasted Kunming mouse assessed as side effects at 1.5 g/Kg, IG measured for 15 days. To be noted: in vivo, po, 1500 mg/kg, 360 h, time 15 day.
A short description of data set [5]: Acute toxicity in overnight fasted Kunming mouse assessed as change in body weight at 1.5 g/Kg, IG measured for 15 days. To be noted: in vivo, po, 1500 mg/kg, 360 h, time 15 day.
Data set [6] can be described thus: Acute toxicity in overnight fasted Kunming mouse assessed as animal survival at 1.5 g/Kg, IG measured for 15 days. Conditions: in vivo, po, 1500 mg/kg, 360 h, time 15 day.
Data set [7] can be described thus: Acute toxicity in overnight fasted Kunming mouse assessed as heart tissue damage at 1.5 g/Kg, IG measured on day 15. To be noted: in vivo, po, 1500 mg/kg.
Data set [8] can be described thus: Acute toxicity in overnight fasted Kunming mouse assessed as liver tissue damage at 1.5 g/Kg, IG measured on day 15. The data set is classed as tissue-based. To be noted: in vivo, po, 1500 mg/kg.
Data set [9] is described as follows: Acute toxicity in overnight fasted Kunming mouse assessed as spleen tissue damage at 1.5 g/Kg, IG measured on day 15. The data set is classed as tissue-based. Conditions: in vivo, po, 1500 mg/kg.
Data set [10] is described as follows: Acute toxicity in overnight fasted Kunming mouse assessed as lung tissue damage at 1.5 g/Kg, IG measured on day 15. The data set is classed as tissue-based. To be noted: in vivo, po, 1500 mg/kg.
The nature of data set [11]: Acute toxicity in overnight fasted Kunming mouse assessed as kidney tissue damage at 1.5 g/Kg, IG measured on day 15. The format is tissue-based. To be noted: in vivo, po, 1500 mg/kg.
Data set [12] deals with Hepatitis B virus. The data set can be described thus: Antiviral activity against Hepatitis B virus infected in duck assessed as log reduction in viral DNA replication in serum at 2.5 to 10 mg/kg, IG administered once daily for first 10 days followed by 10 mg/kg, IG administered for another 18 days. The data set is classed as functional. To be noted: dose 2.5-10 mg/kg, time 28 day.

The test system of data set [13] is Hepatitis B virus. The data set can be described thus: Antiviral activity against Hepatitis B virus infected in duck assessed as log reduction in viral DNA replication in serum at 2.5 to 10 mg/kg, IG administered once daily for first 10 days followed by 20 mg/kg, IG administered for another 18 days. The data set is classed as functional. To be noted: dose 2.5-20 mg/kg, time 28 day.

Data set [14] in a line: Toxicity in duck assessed as animal survival at 2.5 to 10 mg/kg, IG administered once daily for first 10 days followed by 10 to 40 mg/kg, IG for another 18 days. The data set is classed as organism-based. Conditions: anas platyrhynchos, in vivo, po, 672 h, dose 2.5-40 mg/kg, time 28 day.
A short description of data set [15]: Toxicity in duck assessed as body weight loss at 2.5 to 10 mg/kg, IG administered once daily for first 10 days followed by 10 to 40 mg/kg, IG for another 18 days. Conditions: anas platyrhynchos, in vivo, po, 672 h, dose 2.5-40 mg/kg, time 28 day. The data set is classed as organism-based.
Data set [16] can be described thus: Toxicity in duck assessed as body weight gain at 2.5 to 10 mg/kg, IG administered once daily for first 10 days followed by 10 to 40 mg/kg, IG for another 18 days. The format is organism-based. To be noted: anas platyrhynchos, in vivo, po, 672 h, dose 2.5-40 mg/kg, time 28 day.
Data set [17] is described as follows: Toxicity in duck assessed as liver necrosis at 2.5 to 10 mg/kg, IG administered once daily for first 10 days followed by 10 to 40 mg/kg, IG for another 18 days by hematoxyin-eosin staining based light microscopic analysis. To be noted: anas platyrhynchos, in vivo, po, 672 h, dose 2.5-40 mg/kg, time 28 day. The format is organism-based.
Data set [18] is described as follows: Toxicity in duck assessed as liver hemorrhage at 2.5 to 10 mg/kg, IG administered once daily for first 10 days followed by 10 to 40 mg/kg, IG for another 18 days by hematoxyin-eosin staining based light microscopic analysis. The data set is classed as organism-based. Conditions: anas platyrhynchos, in vivo, po, 672 h, dose 2.5-40 mg/kg, time 28 day.
Data set [19] can be described thus: Toxicity in duck assessed as inflammatory response in liver at 2.5 to 10 mg/kg, IG administered once daily for first 10 days followed by 10 to 40 mg/kg, IG for another 18 days by hematoxyin-eosin staining based light microscopic analysis. The data set is classed as organism-based. To be noted: anas platyrhynchos, in vivo, po, 672 h, dose 2.5-40 mg/kg, time 28 day.

A short description of data set [20]: Drug metabolism in Sprague-Dawley rat liver assessed as AUC(0 to t) of TFV-DP at 20 mg/kg, IG meaured upto 12 hrs by HPLC-MS/MS analysis. The data set is classed as ADME, organism-based. Conditions: in vivo, po.
Data set [21] can be described thus: Metabolic stability in rat plasma assessed as half life measured upto 25 mins by HPLC analysis. The format is ADME, cell-free.
A short description of data set [22]: Metabolic stability in human plasma assessed as half life measured upto 24 hrs by HPLC analysis. The data set is classed as ADME, cell-free.
Data set [23] in a line: Metabolic stability in dog plasma assessed as half life measured upto 24 hrs by HPLC analysis. The format is ADME, cell-free, Canis lupus familiaris.
The test system of data set [24] is Hepatitis B virus. The data set can be described thus: Antiviral activity against Hepatitis B virus infected in duck assessed as log reduction in viral DNA replication in serum at 2.5 to 10 mg/kg, IG administered once daily for first 10 days followed by 40 mg/kg, IG administered for another 18 days. To be noted: dose 2.5-40 mg/kg, time 28 day. The format is functional.

SMILES strings stand for the structures. pEC50: −log10 of the molar value.

Turning to `Cc1ccccc1COP(=O)(CO[C@H](C)Cn1cnc2c(N)ncnc21)N[C@@H](C)C(=O)OC(C)C` (stereo in doubt; 1a), the Activity in the data set with Hepatitis B virus [1] is recorded as 81.72%; in [4], “Non-Toxic”; in data set [5], “Non-Toxic”; in [6] it was “Non-Toxic”; in data set [7], “Non-Toxic”; in [8], “Non-Toxic”. Moreover, the Activity result is “Non-Toxic” in [9]; “Non-Toxic” in [10]; “Non-Toxic” in [11]; 3 in the data set with Hepatitis B virus [12]; 3.6 in the data set with Hepatitis B virus [13]; “Non-Toxic” in data set [14]. Also, the Activity entry in data set [15] was “Non-Toxic”; in data set [16], “Toxic”; in data set [17], “Non-Toxic”; in data set [18] it was “Non-Toxic”; in [19], “Non-Toxic”; with Hepatitis B virus [24] it was 2.9. In addition, in [2], the CC50 at 72 h is greater than 500000 nM. The pEC50 in the data set with Hepatitis B virus [3] is 7.62. In addition, the AUCt in data set [20] was found to be 781.6 ng·h/g. Besides, the half-life in data set [21] is less than 5 min; in [22], greater than 24 h; in [23] it was greater than 24 h.
